Data as given in patent US12012413B2, “Methods of treating painful diabetic peripheral neuropathy” (Tenacia Biotechnology (Hong Kong) Co., Limited, priority 2019, dated 2024).
In brackets after ≈: the same amount, converted by molar mass. Where two headings read alike, the source gives them in different places. Each block holds one compound with its values, some of them ahead of it.

Key:
[1] = Solid form conversion / physical stability (XRPD); assay type: physicochemical; conditions: for form conversion in suspension: isopropanol, ethyl acetate, or isopropyl acetate
Method: X-ray powder diffraction (XRPD) analysis was carried out on a Stoe Stadi P with Mythen1K detector; Cu-Kα1 radiation; 40 kV and 40 mA tube power; curved Ge monochromator; 0.02° 2θ step size, 12 s step time, 1.5-50.5° 2θ scanning range; detector mode: step scan; 1° 2θ detector step. The sample (about 20 mg) was placed between two acetate foils and clamped in a Stoe transmission sample holder. The sample holder was rotated during the measurement.
X-ray powder diffraction (XRPD) analysis was also carried out on a on a Bruker D8 Advance; Cu-Kα radiation; standard measurement conditions: Bragg-Brentano reflection geometry; 40 kV and 40 mA tube power; LynxEye detector; 0.02° 2θ step size, 37 s step time, 2.5-50.5° 2θ scanning range (about 10 min measurement time. The sample was spread on a silicon single crystal substrate without cavity and flattened to fit to the 0.1 mm depth of the sample holder.
Crystalline, anhydrous Form C material of 3-hydroxy-2-(5-isobutyryl-1-oxo-2,5-diazaspiro[3.4]octan-2-yl)butanamide is not stable in comparison to anhydrous Form A or anhydrous Form B under ambient conditions of temperature and humidity. […] In turn, anhydrous Form A and anhydrous Form B each convert to monohydrate Form MH under the conditions described above.

[2] = Solubility of anhydrous crystalline forms in water and isopropyl acetate at room temperature; assay type: physicochemical
[3] = system: neuropathic pain associated with diabetic peripheral neuropathy; assay: Randomized, double-blind, placebo-controlled multiple-dose study in subjects with neuropathic pain associated with diabetic peripheral neuropathy; assay type: in vivo, human
Method: A randomized, double-blind, parallel-group, placebo-controlled, multiple-dose study was conducted to assess the efficacy and safety of NYX-2925 in subjects with neuropathic pain associated with diabetic peripheral neuropathy. The study was to evaluate the efficacy of multiple dose levels of NYX-2925 versus placebo in treating the neuropathic pain associated with diabetic peripheral neuropathy. The study was also to assess the effects of multiple dose levels of NYX-2925 versus placebo on pain characteristics, sleep interference, health status, psychological state, and global improvement, and to assess the safety and tolerability of multiple dose levels of NYX-2925. The study was a 6- to 9-week study, including a 1- to 4-week Screening Period, followed by a 4-week double-blind, randomized, placebo-controlled Treatment Period, and a 1-week Follow-Up Period. Subjects with Type 2 diabetes who had been on stable antidiabetic medication for at least 1 month (or had stable glycemic control with diet and exercise alone) and who had been suffering from painful diabetic peripheral neuropathy in the lower extremities for at least 6 months but not more than 10 years were screened for diabetic peripheral neuropathy using the Michigan Neuropathy Screening Instrument and the Masquerading Disorders Tool. […] Subjects were dispensed acetaminophen to be used as rescue medication, and were instructed to take no more than 2 g/daily (one to two 500-mg caplets every 4 to 6 hours as needed) for DPN pain. Beginning immediately after Visit 1, pain intensity and rescue medication use were recorded in the study-issued handheld device daily at bedtime. Subjects entered their average pain intensity, worst pain intensity, pain on walking, and whether rescue medication was used during the past 24 hours. Pain intensity was recorded using an 11-point NRS, with 0 being no pain and 10 being the worst pain imaginable. Every morning upon awakening, subjects completed the Daily Sleep Interference Scale (DSIS) via their study-issued handheld device. Eligible subjects were randomized to receive either NYX-2925 10 mg daily, NYX-2925 50 mg daily, NYX-2925 200 mg daily, or placebo for 4 weeks in a 1:1:1:1 allocation. Investigators and subjects were masked to the randomization allocation. Subjects were dispensed a 2-week supply of investigational product and instructed to take 2 capsules by mouth once daily. Subjects were also re-dispensed acetaminophen to use as rescue medication for DPN pain; instructions not to exceed 2 g/day were reinforced. The appropriate use of rescue medication was assessed by inventory of the returned caplets, as well as by subject interview. Subjects were instructed to continue entering their average pain intensity, worst pain intensity, pain upon walking, and whether they used rescue medication over the past 24 hours into their study-issued handheld devices every night. Every morning upon awakening, subjects completed the DSIS via their study-issued handheld device. Pain diary compliance was reviewed at each study visit by the study staff, and reporting instructions was reinforced. Quantitative sensory testing was done using the Bedside Sensory Testing Kit. The following scales were completed at the Baseline Visit: Brief Pain Inventory for Diabetic Peripheral Neuropathy (BPI-DPN), the Short-Form McGill Pain Questionnaire version 2 (SF-MPQ-2), the Norfolk Quality of Life Questionnaire-Diabetic Neuropathy (QOL-DN), the HADS, the Insomnia Severity Index, and the S-STS. Subjects returned to the clinic at the end of Week 2 for assessment of compliance with study medication, use of rescue medication, and were dispensed the final 2-week supply of investigational product and rescue medication for DPN pain. Pain diary compliance was reviewed by the study staff, and reporting instructions were reinforced. Adverse events were assessed by asking the subjects a non-leading question. Use of concomitant medications was documented. […]

[4] = 10, 50 or 200 mg by mouth once daily for 4 weeks
[5] = advanced DPN (at least 4 years)
[6] = patients with at least 4 years of DPN duration

SMILES: CC(C)C(=O)N1CCCC12CN(C(C(N)=O)C(C)O)C2=O (centres unmarked) [Form C, 3-hydroxy-2-(5-isobutyryl-1-oxo-2,5-diazaspiro[3.4]octan-2-yl)butanamide]
stability in comparison to anhydrous Form A or anhydrous Form B ([1]; ambient conditions of temperature and humidity): not stable
form conversion in suspension ([1]; temperatures greater than or equal to 75° C.): converts to anhydrous Form B
form conversion in suspension ([1]; temperatures less than or equal to 50° C.): converts to anhydrous Form A

SMILES: CC(C)C(=O)N1CCCC12CN(C(C(N)=O)C(C)O)C2=O (centres unmarked) [3-hydroxy-2-(5-isobutyryl-1-oxo-2,5-diazaspiro[3.4]octan-2-yl)butanamide]
physical stability on storage (XRPD) ([1]; about six weeks in a sealed vial at −20° C.): did not crystallize

SMILES: CC(C)C(=O)N1CCC[C@]12CN([C@H](C(N)=O)[C@@H](C)O)C2=O [NYX-2925, (2S,3R)-3-hydroxy-2-((R)-5-isobutyryl-1-oxo-2,5-diazaspiro[3.4]octan-2-yl)butanamide]
change in daily sleep interference score from baseline ([3]; 50 mg dose, advanced DPN (at least 4 years), at least at the 2, 3 and 4 week points): Statistical significance
change in average pain (NRS) from baseline ([3]; 50 mg dose, advanced DPN (at least 4 years), at least at the 3 and 4 week points): Statistical significance
change from placebo in average daily pain, baseline to week 4, by duration of painful DPN ([3]; 50 mg dose, groups ≥1 to ≥5 yrs): most significant at ≥4 years
Week 4 change vs. baseline in average daily pain (on 10-point NRS) ([3]; 50 mg once daily, patients with advanced DPN): 1.93 points
Week 4 change vs. placebo in average daily pain (on 10-point NRS) ([3]; 50 mg once daily, patients with advanced DPN, p=0.004): 1.21 points
separation from placebo by dose ([3]; 200 mg and 50 mg doses): meaningful separation from placebo
shape of dose response ([3]; 10, 50 and 200 mg doses): inverted-U-shaped dose response
overall AE profile [3, 4]: comparable to placebo
safety and tolerability [3, 4]: safe and well tolerated
serious adverse events (SAEs) [3, 4]: no SAEs
change in pain on walking (NRS) score from baseline [3, 5]: improvement
change in worst pain from baseline [3, 5]: improvement
most active dose level among the three doses tested (10, 50, 200 mg) ([3]; once daily for 4 weeks): 50 mg
separation from placebo on the primary endpoint (change in average daily pain) ([3]; patients not on a concomitant analgesic (n=148), 10, 50 or 200 mg by mouth once daily for 4 weeks): numeric, but not statistically significant, separation from placebo
pain alleviation ([3]; patients with DPN, after four weeks): meaningful pain alleviation
effects on change in average daily pain vs. placebo ([3]; patients with advanced DPN (DPN for ≥4 years, n=127; post-hoc analysis)): significant effects
insomnia severity (secondary endpoint) [3, 6]: Improvement
pain interference (secondary endpoint) [3, 6]: Improvement
pain severity (secondary endpoint) [3, 6]: Improvement
patient global impression of change (PGI-C) (secondary endpoint) [3, 6]: Improvement
quality of life (secondary endpoint) [3, 6]: Improvement
total pain score (secondary endpoint) [3, 6]: Improvement
effect of concomitant analgesic use on treatment benefit ([3]; patients with or without a concomitant analgesic): does not appear to affect treatment benefit
MMRM change in daily sleep interference ([3]; subjects not using analgesic (n=148), 50 mg dose, at the 3 and 4 week points): significance
separation from placebo on the primary endpoint (change in average daily pain) ([3]; total patient population (n=300), 10, 50 or 200 mg by mouth once daily for 4 weeks): numeric, but not statistically significant, separation from placebo

More lines, main results first:

solubility ([2]; isopropyl acetate, organic solvent or mixture, after 10 minutes, 1 hour, and 6 hours at room temperature, read-out: solubility in isopropyl acetate): ~9 mg/mL (≈ 30.3 mM)
solubility at 10 min ([2]; water, after 10 minutes at room temperature): ~54 mg/mL (≈ 182 mM)
solubility at 1 h ([2]; water, after 1 hour at room temperature): ~54 mg/mL (≈ 182 mM)
solubility at 6 h ([2]; water, after 6 hours at room temperature): ~48 mg/mL (≈ 161 mM)
SMILES: CC(C)C(=O)N1CCCC12CN(C(C(N)=O)C(C)O)C2=O (centres unmarked) [Form B, 3-hydroxy-2-(5-isobutyryl-1-oxo-2,5-diazaspiro[3.4]octan-2-yl)butanamide]
conversion to the monohydrate Form MH in the solid state ([1]; ambient temperature, atmosphere of greater than or equal to 50% relative humidity): readily converts to the monohydrate Form MH

time to convert to the monohydrate Form MH in the solid phase ([1]; ambient temperature, atmosphere of greater than 5% relative humidity): ≤ 3 days
solubility in isopropyl acetate ([2]; after 10 minutes, 1 hour, and 6 hours at room temperature): about 8 mg/mL
solubility ([2]; isopropyl acetate, 22 °C, organic solvent or mixture, room temperature (about 22° C.), read-out: solubility in isopropyl acetate): ~8 mg/mL (≈ 26.9 mM)
solubility ([2]; water, 22 °C, water, room temperature (about 22° C.), read-out: solubility in water): 54 to 55 mg/mL (≈ 182 to 185 mM)
SMILES: CC(C)C(=O)N1CCCC12CN(C(C(N)=O)C(C)O)C2=O (centres unmarked) [Form A, 3-hydroxy-2-(5-isobutyryl-1-oxo-2,5-diazaspiro[3.4]octan-2-yl)butanamide]
